In PMC11173485, “Connecting GSK-3β Inhibitory Activity with IKK-β or ROCK-1 Inhibition to Target Tau Aggregation and Neuroinflammation in Alzheimer’s Disease—Discovery, In Vitro and In Cellulo Activity of Thiazole-Based Inhibitors” (Molecules, 2024):
Like-named read-outs stand apart in the source and are kept apart here.

Key:
[1] = Cytotoxicity, PrestoBlue cell viability assay in BV-2 cells; assay type: cell-based, mouse; settings: mouse, BV-2 microglial cells; for IC50 at 24 h: PrestoBlue, mean ± SEM, read-out: Cytotoxicity in BV-2 Cells (IC50 x¯ ± SEM µM); for viability at 24 h, 1 µM: 1 µM (log C -6); for viability at 24 h, 50 µM: 50 µM (log C -4.3); for viability at 24 h, 100 µM: 100 µM (log C -4)
Protocol: (§1) We assessed their cytotoxic effects at five concentrations (0.1, 1, 10, 50, and 100 µM) in HT-22 (mouse hippocampal neuronal cells) and BV-2 (mouse microglial cells) cell lines using a fluorometric assay with PrestoBlue™ cell viability reagent (Table 4, Table S2 in the SI).
(§2) Mouse microglial cells (BV-2) were a generous gift from Professor Bozena Kaminska-Kaczmarek of the Laboratory of Molecular Neurobiology, Neurobiology Center, Nencki Institute of Experimental Biology, Polish Academy of Sciences, Warsaw, Poland. Cells were cultured in Dulbecco’s modified Eagle’s Medium-high glucose (DMEM, Glutamx Thermo Fisher, Waltham, MA, USA) supplemented with 10% inactivated fetal bovine serum (Thermo Fisher), 100 IU/mL penicillin (Merck), and 100 µg/mL streptomycin (Merck). Cells were cultured in flasks (area 175 cm^2, Nunc) and incubated at 37 °C, 5% CO2. To evaluate the level of NO, IL-6, and TNF-α and the effectiveness of the compounds tested, BV-2 microglia cells were cultured in 96-well culture plates (5 × 10^4 cells per well, Falcon). For the measurement of cell viability and cell membrane damage, cells were placed in 96-well culture plates (2 × 10^4 cells per well, Falcon). Before the tests, cells were grown for 24 h in the incubator (37 °C, 5% CO2). Mouse Hippocampal Neuronal Cell Line (HT-22) was a generous gift from Dr Bartosz Pomierny of the Department of Biochemical Toxicology, Jagiellonian University Medical College, Krakow, Poland. Cells were cultured in Dulbecco’s modified Eagle’s Medium-high glucose (DMEM, Glutamx Thermo Fisher) supplemented with 10% inactivated fetal bovine serum (Thermo Fisher), 100 IU/mL penicillin (Merck), and 100 µg/mL streptomycin (Merck). Cells were cultured in flasks (area 175 cm^2, Nunc) and incubated at 37 °C, 5% CO2. For the measurement of cell viability and neuroprotective effects against okadaic acid, cells were placed in 96-well culture plates (2 × 10^4 cells per well, Falcon). Before the tests, cells were grown for 24 h in the incubator (37 °C, 5% CO2).
(§3) Cell viability was evaluated using the PrestoBlue reagent (Thermo Fisher), according to the manufacturer’s procedures. Following 24 h of incubation with the tested molecule, PrestoBlue reagent was added to a microplate well in an amount equal to one-tenth of the remaining medium volume. The resulting mixture was incubated for 15 min at 37 °C, and the fluorescence intensity (EX 530; EM 580 nm) was measured using the plate reader POLARstar Omega, (BMG Labtech, Ortenberg, Germany). The results (viability values) are provided as a percentage of live cells with respect to DMSO (control sample).
(§4) Cytotoxic effects of selected inhibitors in HT-22 mouse hippocampal neuronal cells and BV-2 mouse microglial cells
(§5) Table S2. Cytotoxic effects of selected inhibitors in HT-22 mouse hippocampal neuronal cells and BV-2 mouse microglial cells. neurotoxicity in HT-22 cellsa immunotoxicity in BV-2 cellsa […]
(§6) a % of cell viability at the given concentration of tested compound; mean value ± standard deviation (SD) of triplicates; b half maximal inhibitory concentration of the tested compound; mean value ± standard error of the mean (SEM) of triplicates; c data obtained in log C of 39 of -8.5; -7.5; -6.5; -5.5; -5, respectively; d data obtained in log C of 49 of -7.5; -6.5; -5.5; -4.5; -4. respectively; nt, not tested.

[2] = tested on: BV-2 (mouse microglial cells); experiment: as above; assay type: cell-based; settings: for effect on cell viability in BV-2 cells (in words): 0.1, 1, 10, 50, and 100 µM
Protocol: as §1, §2, §3, §4, §5, §6

[3] = tested on: IL-6 level, LPS-treated BV-2 cells; experiment: IL-6 level in LPS-treated BV-2 cells (LANCE Ultra TR-FRET); assay type: cell-based, mouse; settings: LPS 100 ng/mL, 18 h
Text: Lipopolysaccharide (LPS) is a potent pro-inflammatory stimulus triggering the extensive production of inflammatory mediators, including cytokines and chemokines. Consequently, it finds widespread application in inducing in vitro and in vivo models of sepsis and inflammation, including neuroinflammation. In this study, we employed LPS in the BV-2 cell line and assessed the impact of the selected compounds on the levels of NO, IL-6, and TNF-α production (Figure 4B–D). […] Moreover, all compounds surpassed the reference compound in these assays.
The cells were pretreated with tested compounds for 1 h. After this time, lipopolysaccharide (100 ng/mL) was added and the resulting mixture was incubated for 18 h. Next, the culture supernatant was acquired to measure the levels of nitric oxide (NO), IL-6, and TNF-α, according to the following procedures.
IL-6 and TNF-α levels in the culture supernatants were measured using the LANCE Ultra TR-FRET Detection Kit (Perkin Elmer, Waltham, MA, USA), according to the manufacturer’s protocol. Each cytokine detection was performed separately in a 384-well plate, following the kit instructions. Samples were added at 15 μL/well to a 384-well plate and then premixed antibody solution was added at 5 μL/well. After 1 h of incubation of IL-6 and 3 h of incubation of TNF-α in the dark at 22 °C, the plates were read using an EnVision plate reader (Perkin Elmer) with the excitation wavelength at 320 nm, the donor emission were read at 615 nm, and the acceptor emission were read at 660 nm. The values of IL-6 and TNF-α levels were calculated as a percentage of control (maximal response of LPS).
Figure 4 (A) Results of the okadaic-acid-induced hyperphosphorylation assay. The HT-22 cells were pretreated for 3 h with okadaic acid (400 nM), and the tested compounds, at the increasing non-cytotoxic concentrations, were determined using a viability assay (or with the vehicle, 10 µM DMSO in the control sample). Cell viability was measured using the PrestoBlue^TM cell viability reagent. (B–D) Results of anti-inflammatory assays in LPS-treated (100 ng/mL) BV-2 cell line. The final compounds and references were tested at increasing non-cytotoxic concentrations and with DMSO as a control sample. NO release was measured using a fluorometric assay with 2,3-diaminonaphthalene (DAN). The IL-6 and TNF-α levels were measured using an LANCE Ultra TR-FRET Detection Kit (Perkin Elmer). Statistical analysis was performed using GraphPad Prism 9.0.0. All values are expressed as mean with SD. Differences among groups were evaluated using one-way ANOVA followed by post hoc analysis (Dunnett’s multiple comparison tests) and were considered statistically significant if p < 0.05 (* p < 0.05, ** p < 0.01, and **** p < 0.0001).

[4] = 24 h, read-out: immunotoxicity in BV-2 cells, % of cell viability
[5] = 10 µM (log C -5), 24 h, read-out: immunotoxicity in BV-2 cells, % of cell viability

SMILES	viability at 24 h, 10 µM ([1]; log C -5 (footnote c; printed in column 100 µM), read-out: immunotoxicity in BV-2 cells, % of cell viability) [%]	viability at 24 h, 3.16 µM ([1]; log C -5.5 (footnote c; printed in column 50 µM), read-out: immunotoxicity in BV-2 cells, % of cell viability) [%]	viability at 24 h, 0.316 µM ([1]; log C -6.5 (footnote c; printed in column 10 µM), read-out: immunotoxicity in BV-2 cells, % of cell viability) [%]	IC50 at 24 h ([1]; 24 h) [µM]	effect on cell viability in BV-2 cells (in words) [2]	viability at 24 h, 1 µM [1, 4] [%]	viability at 24 h, 10 µM [1, 5] [%]	viability at 24 h, 50 µM [1, 4] [%]	viability at 24 h, 100 µM [1, 4] [%]	viability at 24 h, 0.1 µM [1, 4] [%]	effect on viability of BV-2 cells at concentrations up to 10 µM (in words) [2]	IL-6 level (in words) ([3]; 1 µM)	IL-6 level (in words) ([3]; 10 µM)
CC(C)C(=O)Nc1cc(-c2cc3c(s2)C(=O)NC(C)(C)N3)ccn1 [Compound 39, N-(4-(2,2-Dimethyl-4-oxo-1,2,3,4-tetrahydrothieno [3,2-d]pyrimidin-6-yl)pyridin-2-yl)isobutyramide]	14	73	105	4.5 ± 1.9	decreased cells’ viability								
CC1(C)NC(=O)c2sc(-c3ccnc(NC(=O)C4CC4)c3)cc2N1 [Compound 40, N-(4-(2,2-Dimethyl-4-oxo-1,2,3,4-tetrahydrothieno [3,2-d]pyrimidin-6-yl)pyridin-2-yl)-cyclopropanecarboxamide]				3.6 ± 0.7	decreased cells’ viability	109	9	2	2	106			
CC1(C)NC(=O)c2sc(-c3ccnc(NC(=O)C4CCC4)c3)cc2N1 [Compound 41, N-(4-(2,2-Dimethyl-4-oxo-1,2,3,4-tetrahydrothieno [3,2-d]pyrimidin-6-yl)pyridin-2-yl)-cyclobutanecarboxamide]					decreased cells’ viability								
CC(C)C(=O)Nc1cc(-c2cc(NC(N)=O)c(C(N)=O)s2)ccn1 [Compound 48, 5-(2-Isobutyramidopyridin-4-yl)-3-ureidothiophene-2-carboxamide]				21.8 ± 3.8	decreased cells’ viability	97	66	20		103			
NC(=O)Nc1cc(-c2ccnc(NC(=O)C3CC3)c2)sc1C(N)=O [Compound 49, 5-(2-(Cyclopropanecarboxamido)pyridin-4-yl)-3-ureidothiophene-2-carboxamide]				> 100	no significant decrease in cell viability				74		did not decrease the viability of the cells	reduced IL-6 levels	significantly decreased
NC(=O)Nc1cc(-c2ccnc(NC(=O)C3CCC3)c2)sc1C(N)=O [Compound 50, 5-(2-(Cyclobutanecarboxamido)pyridin-4-yl)-3-ureidothiophene-2-carboxamide]				> 100	no significant decrease in cell viability	107	114	96	50	101			significantly decreased
NC(=O)Nc1cc(-c2cccc(NC(=O)C3CC3)c2)sc1C(N)=O [Compound 58, 5-(3-(Cyclopropanecarboxamido)phenyl)-3-ureidothiophene-2-carboxamide]				51.4 ± 0.8	decreased cells’ viability	107	97	52	13	106	did not decrease the viability of the cells		
O=C1NC2(CCCC2)Nc2cc(-c3ccnc(NC(=O)C4CC4)c3)sc21 [Compound 60, N-(4-(4’-Oxo-3’,4’-dihydro-1’H-spiro[cyclopentane-1,2’-thieno [3,2-d]pyrimidin]-6’-yl)pyridin-2-yl)cyclopropanecarboxamide]				3	decreased cells’ viability	101	9	3	3	108			
O=C1NC2(CCOC2)Nc2cc(-c3ccnc(NC(=O)C4CC4)c3)sc21 (stereo not shown) [Compound 62, N-(4-(4′-Oxo-3′,4,4′,5-tetrahydro-1′H,2H-spiro[furan-3,2′-thieno [3,2-d]pyrimidin]-6′-yl)pyridin-2-yl)cyclopropanecarboxamide]				54.8 ± 1.9	decreased cells’ viability	106	105	5	2	105	did not decrease the viability of the cells		significantly decreased
COc1nc(-c2ccnc(NC(=O)C3CC3)c2)sc1C(N)=O [II, reference compound]				15.4 ± 0.6	decreased cells’ viability	102	60	27	4	97			
